Test: xn = mol fraction of the nth substance listed

CCOCCOCCO + ClC(Cl)=C(Cl)Cl
298.15 K, 101.33 kPa
Settings	viscosity [mPa·s]
x1 = 0.0123	0.859
x1 = 0.0256	0.874
x1 = 0.0478	0.903
x1 = 0.0645	0.928
x1 = 0.0824	0.956
x1 = 0.097	0.979
x1 = 0.1126	1.012
x1 = 0.1488	1.081
x1 = 0.1758	1.135
x1 = 0.2057	1.196
x1 = 0.2427	1.278
x1 = 0.2829	1.371
x1 = 0.3332	1.493
x1 = 0.3756	1.61
x1 = 0.4139	1.717
x1 = 0.4562	1.843
x1 = 0.4889	1.949
x1 = 0.5216	2.063
x1 = 0.5734	2.246
x1 = 0.6176	2.412
x1 = 0.6576	2.552
x1 = 0.6972	2.699
x1 = 0.7396	2.858
x1 = 0.8033	3.119
x1 = 0.854	3.335
x1 = 0.8945	3.519
x1 = 0.9227	3.64
x1 = 0.9398	3.718
x1 = 0.9556	3.786
x1 = 0.9736	3.873
x2 = 0.0112	3.936

CCOCCOCCO + ClC=C(Cl)Cl
298.15 K, 101.33 kPa
Settings	viscosity [mPa·s]
x1 = 0.0082	0.539
x1 = 0.0263	0.563
x1 = 0.0381	0.58
x1 = 0.0517	0.602
x1 = 0.0641	0.62
x1 = 0.0756	0.639
x1 = 0.0944	0.669
x1 = 0.129	0.736
x1 = 0.1724	0.823
x1 = 0.2108	0.91
x1 = 0.2459	0.997
x1 = 0.2921	1.117
x1 = 0.3336	1.235
x1 = 0.3791	1.376
x1 = 0.4231	1.528
x1 = 0.457	1.659
x1 = 0.4908	1.788
x1 = 0.5204	1.902
x1 = 0.557	2.042
x1 = 0.5875	2.163
x1 = 0.632	2.342
x1 = 0.6736	2.519
x1 = 0.7163	2.701
x1 = 0.7635	2.912
x1 = 0.7976	3.068
x1 = 0.8333	3.224
x1 = 0.8779	3.423
x1 = 0.9203	3.621
x1 = 0.9414	3.723
x1 = 0.9717	3.857
x2 = 0.018	3.895

CCCCCCCCCCCCCC + Clc1ccccc1
viscosity [mPa·s], 101 kPa
Settings	x1 = 0.1001	x1 = 0.1937	x1 = 0.295	x1 = 0.3916	x1 = 0.494	x1 = 0.5998	x1 = 0.6984	x1 = 0.8002	x1 = 0.9001
298.15 K	0.844	0.945	1.063	1.151	1.266	1.38	1.495	1.609	1.724
303.15 K	0.789	0.877	0.964	1.097	1.161	1.226	1.291	1.354	1.419
308.15 K	0.746	0.819	0.932	0.991	1.041	1.19	1.241	1.219	1.397

ClC(Cl)=C(Cl)Cl + Clc1ccccc1
303.15 K, 101 kPa
Settings	viscosity [mPa·s]
x1 = 0.1416	0.716
x1 = 0.2048	0.717
x1 = 0.2727	0.718
x1 = 0.3562	0.72
x1 = 0.4651	0.728
x1 = 0.5412	0.739
x1 = 0.6279	0.751
x1 = 0.718	0.766
x1 = 0.8422	0.786
x1 = 0.9302	0.802

Cc1nc(C)c(C)[nH]1 + O
viscosity [mPa·s], 100 kPa
Settings	x1 = 0.0179	x1 = 0.0393	x1 = 0.0655	x1 = 0.0983	x1 = 0.141
298.15 K	1.317	2.01	3.12	5.27	9.35
303.15 K	1.157	1.754	2.71	4.41	7.38
313.15 K	0.944	1.384	2.08	3.24	4.87
323.15 K	0.774	1.1	1.598	2.4	3.44

Source: the CheMixHub viscosity set
